Reference: the CheMixHub viscosity set

Test: xn = mol fraction of the nth substance listed

ClCCl + CC(C)O
298.15 K, 101 kPa
Conditions	viscosity [mPa·s]
x2 = 0.05	0.425
x2 = 0.0992	0.435
x2 = 0.1	0.433
x2 = 0.15	0.444
x2 = 0.2	0.458
x2 = 0.2021	0.457
x2 = 0.25	0.474
x2 = 0.299	0.491
x2 = 0.3	0.494
x2 = 0.35	0.518
x2 = 0.3974	0.548
x2 = 0.4	0.547
x2 = 0.45	0.583
x2 = 0.5	0.626
x2 = 0.55	0.679
x2 = 0.552	0.68
x2 = 0.5957	0.74
x2 = 0.6	0.744
x2 = 0.65	0.823
x2 = 0.6514	0.825
x2 = 0.7	0.917
x2 = 0.75	1.031
x2 = 0.8	1.167
x2 = 0.8003	1.16
x2 = 0.85	1.327
x2 = 0.8515	1.321
x2 = 0.897	1.515
x2 = 0.9	1.516
x2 = 0.924	1.619
x2 = 0.9482	1.742
x2 = 0.95	1.738
x2 = 0.975	1.912

CCCCCCCCCCCCCCCC(=O)O + CC(C)[C@@H]1CC[C@@H](C)C[C@H]1O
100 kPa, x1 = 0.15
Conditions	viscosity [mPa·s]
313.15 K	15.25
318.15 K	11.78
323.15 K	9.29

CCNc1ccccc1 + CCC(=O)O
308.15 K, 101.33 kPa
Conditions	viscosity [mPa·s]
x2 = 0.1567	1.706
x2 = 0.2906	1.897
x2 = 0.4142	2.167
x2 = 0.5224	2.302
x2 = 0.6217	2.533
x2 = 0.7121	2.575
x2 = 0.7933	2.379
x2 = 0.8787	1.916
x2 = 0.9032	1.691
x2 = 0.9363	1.412
x2 = 0.9694	1.113

CCNc1ccccc1 + CCC(=O)c1ccccc1
303.15 K, 100 kPa
Conditions	viscosity [mPa·s]
x1 = 0.0789	1.524
x1 = 0.1541	1.537
x1 = 0.2249	1.55
x1 = 0.3002	1.565
x1 = 0.3862	1.581
x1 = 0.4651	1.598
x1 = 0.5244	1.612
x1 = 0.6049	1.631
x1 = 0.6891	1.653
x1 = 0.7354	1.666
x1 = 0.8005	1.683
x1 = 0.8523	1.699
x1 = 0.9099	1.716

CC(=O)O + CCC(C)=O
viscosity [mPa·s], 101 kPa
Conditions	x1 = 0.1006	x1 = 0.2003	x1 = 0.3011	x1 = 0.4019	x1 = 0.5031	x1 = 0.6006	x1 = 0.7023	x1 = 0.7985	x1 = 0.8986
298.15 K	0.4312	0.4737	0.5266	0.5832	0.6507	0.7259	0.8152	0.9085	1.013
308.15 K	0.3905	0.4255	0.4697	0.5173	0.573	0.6346	0.7132	0.7902	0.879
318.15 K	0.3521	0.3832	0.4196	0.4601	0.5058	0.559	0.6203	0.6845	0.7622

CCOC=O + CCC(C)O
viscosity [mPa·s], 100 kPa
Conditions	x1 = 0.0818	x1 = 0.1617	x1 = 0.2415	x1 = 0.3497	x1 = 0.4398	x1 = 0.5611	x1 = 0.65	x1 = 0.7399	x1 = 0.85	x1 = 0.9396
293.15 K	2.41	1.74	1.35	1.04	0.86	0.69	0.59	0.53	0.48	0.44
298.15 K	2.03	1.51	1.2	0.94	0.78	0.62	0.55	0.5	0.45	0.42
303.15 K	1.74	1.32	1.07	0.84	0.71	0.58	0.51	0.47	0.43	0.4
308.15 K	1.5	1.17	0.96	0.77	0.66	0.55	0.49	0.45	0.41	0.38
313.15 K	1.3	1.02	0.85	0.71	0.61	0.51	0.46	0.42	0.39	0.36
318.15 K	1.13	0.9	0.77	0.65	0.57	0.48	0.43	0.39	0.36	0.34
323.15 K	1	0.82	0.72	0.61	0.55	0.47	0.42	0.38	0.35	0.32
